In BindingDB's records for doi:10.7270/Q2P55M4P (Burnham Center For Chemical Genomics, 2013) one finds EC50 data, which are given here for 11 compounds.

The target in this assay is Tumor necrosis factor receptor superfamily member 10B (Homo sapiens, UniProt O14763).

The structures appear in SMILES notation.

Tumor necrosis factor receptor superfamily member 10B, sequence (O14763 whole entry): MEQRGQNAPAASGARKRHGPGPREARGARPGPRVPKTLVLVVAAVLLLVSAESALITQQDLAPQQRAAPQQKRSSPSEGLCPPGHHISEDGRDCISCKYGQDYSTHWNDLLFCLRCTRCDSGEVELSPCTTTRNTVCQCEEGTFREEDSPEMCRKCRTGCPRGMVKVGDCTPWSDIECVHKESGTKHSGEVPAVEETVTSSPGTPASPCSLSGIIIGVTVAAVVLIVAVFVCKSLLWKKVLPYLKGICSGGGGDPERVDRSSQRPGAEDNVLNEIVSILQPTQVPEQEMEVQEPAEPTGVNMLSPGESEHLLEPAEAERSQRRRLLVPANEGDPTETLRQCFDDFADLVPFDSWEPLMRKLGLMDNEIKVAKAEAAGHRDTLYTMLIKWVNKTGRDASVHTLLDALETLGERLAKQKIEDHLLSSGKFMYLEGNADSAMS

`CN(C)c1ccc(N=CCC(=O)c2ccco2)cc1`: the concentration giving a half-maximal response (EC50) (as a rule, the concentration that produces a half-maximal response) was 7.62 µM. The figure for `O=c1c2ccccc2nc2c3ccccc3cnn12` is greater than 12.5 µM; for `Cc1ccc(N=CC(C(=O)c2cccs2)C(=O)C(F)(F)F)cc1` (stereo unspecified) it is 1.87 µM. The same measure for `CCOC(=O)C(c1nc2ccccc2[nH]1)n1c(-c2cccnc2)nc2ccccc21` (stereo unspecified) [2-(1,3-dihydrobenzimidazol-2-ylidene)-2-[2-(3-pyridinyl)-1-benzimidazolyl]acetic acid ethyl ester]: 10.5 µM; for `Cc1cc(N=NCc2ccccc2)nc(NCc2ccccc2)n1` [6-methyl-N2-(phenylmethyl)-N4-[(E)-(phenylmethylidene)amino]pyrimidine-2,4-diamine]: greater than 12.5 µM.

Consider `O=C(Cc1ccc2ccccc2n1)c1ccc(O)cc1O` [(2Z)-1-(2,4-dihydroxyphenyl)-2-(1H-quinolin-2-ylidene)ethanone], for which the EC50 is greater than 12.5 µM.

In turn, `COc1cccc(N=CCC(=O)c2ccc(Cl)cc2)c1` [(E)-1-(4-chlorophenyl)-3-(3-methoxyanilino)-2-propen-1-one] registered an EC50 of 10.3 µM. The figure for `O=c1[nH]c(N=NCc2ccc3c(c2)OCO3)nc2ccccc12` [MLS000700888] is 10.9 µM; for `COc1ccc(C(C)N=Nc2nncc3ccccc23)cc1` (stereo unspecified) [N-[(E)-1-(4-methoxyphenyl)ethylideneamino]-1-phthalazinamine] it is greater than 12.5 µM.

`COc1ccc(CN=Nc2nc3ccccc3c(=O)n2-c2ccccc2)cc1OC` [SMR000174011] yielded an EC50 of 8.6 µM. The figure for `CCOC(=O)c1ccc(N=CCC(=O)c2ccco2)cc1` [ethyl 4-[[(E)-3-(furan-2-yl)-3-oxoprop-1-enyl]amino]benzoate] is greater than 12.5 µM.
